Experimental data as given in US10202378B2, “Therapeutic compounds and uses thereof” (GENENTECH, INC., priority 2015, dated 2019).

Columns and labels:
[1] = biological target: TAF1-BD2 (Homo sapiens, UniProt P21675); test: TAF1-BD2 TR-FRET Binding Assay; settings: read-out: TAF1-BD2 HTRF IC50
[2] = biological target: TAF1-BD1 (Homo sapiens, UniProt P21675); test: TAF1-BD1 TR-FRET Binding Assay; settings: read-out: TAF1-BD1 HTRF IC50

| IC50 [1] | IC50 [2] | Compound |
| --- | --- | --- |
| 21.7 nM | 551 nM | Cc1[nH]c2c(=O)n(C)cc(C#CC(C)(C)O)c2c1C(=O)OC(C)(C)CCN [Example 165, (3-amino-1,1-dimethyl-propyl) 4-(3-hydroxy-3-methyl-but-1-ynyl)-2,6-dimethyl-7-oxo-1H-pyrrolo[2,3-c]pyridine-3-carboxylate] |
| 59.7 nM | > 20000 nM | C=CCCn1cc(C#CC(C)(C)O)c2c(C(=O)OCc3ccccc3C)c(C)[nH]c2c1=O [Example 124, o-tolylmethyl 6-but-3-enyl-4-(3-hydroxy-3-methyl-but-1-ynyl)-2-methyl-7-oxo-1H-pyrrolo[2,3-c]pyridine-3-carboxylate] |
| 83.2 nM | 260 nM | Cc1[nH]c2c(=O)n(C)cc(C#CC(C)(C)O)c2c1C(=O)OC(C)c1ccccc1 (stereo not drawn) [Example 120, 1-phenylethyl 4-(3-hydroxy-3-methyl-but-1-ynyl)-2,6-dimethyl-7-oxo-1H-pyrrolo[2,3-c]pyridine-3-carboxylate] |
| 69.2 nM | 355 nM | CCOC(=O)c1c(C)[nH]c2c(=O)n(C)cc(C#CC(O)(c3cccc(C#N)c3)C(F)(F)F)c12 (stereo not drawn) [Example 40, ethyl 4-(3-(3-cyanophenyl)-4,4,4-trifluoro-3-hydroxybut-1-yn-1-yl)-2,6-dimethyl-7-oxo-6,7-dihydro-1H-pyrrolo[2,3-c]pyridine-3-carboxylate] |
| 29.9 nM | 173 nM | Cc1[nH]c2c(=O)n(C)cc(C#CC(C)(C)O)c2c1C(=O)OCC(C)C [Example 132, isobutyl 4-(3-hydroxy-3-methyl-but-1-ynyl)-2,6-dimethyl-7-oxo-1H-pyrrolo[2,3-c]pyridine-3-carboxylate] |
| 429 nM | 757 nM | CCOC(=O)c1c(C)[nH]c2c(=O)n(C)cc(C#CC3(O)CCNCC3)c12 [Example 12, ethyl 4-[2-(4-hydroxy-4-piperidyl)ethynyl]-2,6-dimethyl-7-oxo-1H-pyrrolo[2,3-c]pyridine-3-carboxylate] |
| 38.5 nM | 616 nM | CCOC(=O)c1c(C)[nH]c2c(=O)n(C)cc(C#CC(C)(C)O)c12 [Example 78, ethyl 4-(3-hydroxy-3-methyl-but-1-ynyl)-2,6-dimethyl-7-oxo-1H-pyrrolo[2,3-c]pyridine-3-carboxylate] |
| 815 nM | 14500 nM | CCOC(=O)c1c(C)[nH]c2c(=O)n(C)cc(C#CC3(O)CCN(C)CC3)c12 [Example 9, ethyl 4-[2-(4-hydroxy-1-methyl-4-piperidyl)ethynyl]-2,6-dimethyl-7-oxo-1H-pyrrolo[2,3-c]pyridine-3-carboxylate] |
| 54.4 nM | 318 nM | Cc1[nH]c2c(=O)n(C)cc(C#CC(C)(O)c3ccccc3)c2c1C(=O)OC(C)(C)C (stereo not drawn) [Example 162, tert-butyl 4-(3-hydroxy-3-phenyl-but-1-ynyl)-2,6-dimethyl-7-oxo-1H-pyrrolo[2,3-c]pyridine-3-carboxylate] |
| 27.7 nM | 105 nM | Cc1[nH]c2c(=O)n(C)cc(C#CC(C)(C)O)c2c1C(=O)OCc1ccccc1C(F)(F)F [Example 116, [2-(trifluoromethyl)phenyl]methyl 4-(3-hydroxy-3-methyl-but-1-ynyl)-2,6-dimethyl-7-oxo-1H-pyrrolo[2,3-c]pyridine-3-carboxylate] |
| 29.4 nM | 116 nM | Cc1[nH]c2c(=O)n(C)cc(C#CC(C)(C)O)c2c1C(=O)OCc1ccccc1C#N [Example 110, (2-cyanophenyl)methyl 4-(3-hydroxy-3-methyl-but-1-ynyl)-2,6-dimethyl-7-oxo-1H-pyrrolo[2,3-c]pyridine-3-carboxylate] |
| 85.4 nM | 632 nM | CCOC(=O)c1c(C)[nH]c2c(=O)n(C)cc(C#CC3(O)CC3)c12 [Example 18, ethyl 4-[2-(1-hydroxycyclopropyl)ethynyl]-2,6-dimethyl-7-oxo-1H-pyrrolo[2,3-c]pyridine-3-carboxylate] |
| 99.8 nM | 150 nM | Cc1[nH]c2c(=O)n(C)cc(C#CC(C)(O)CC#N)c2c1C(=O)OCC(C)C (stereo not drawn) [Example 154, isobutyl 4-(4-cyano-3-hydroxy-3-methyl-but-1-ynyl)-2,6-dimethyl-7-oxo-1H-pyrrolo[2,3-c]pyridine-3-carboxylate] |
| 32.9 nM | 278 nM | CCOC(=O)c1c(C)[nH]c2c(=O)n(C)cc(C#CC(O)(c3ccccc3)C(F)F)c12 (stereo not drawn) [Example 89, ethyl 4-(4,4-difluoro-3-hydroxy-3-phenyl-but-1-ynyl)-2,6-dimethyl-7-oxo-1H-pyrrolo[2,3-c]pyridine-3-carboxylate] |

Further lines, the molecule ahead of its results:

| Compound | IC50 [1] | IC50 [2] |
| --- | --- | --- |
| CCOC(=O)c1c(C2CC2)[nH]c2c(=O)n(C)cc(C#CC(C)(C)O)c12 [Example 207, ethyl 2-cyclopropyl-4-(3-hydroxy-3-methyl-but-1-ynyl)-6-methyl-7-oxo-1H-pyrrolo[2,3-c]pyridine-3-carboxylate] | 353 nM | 957 nM |
| CCOC(=O)c1c(C)[nH]c2c(=O)n(C)cc(C#Cc3cccc(N)c3)c12 [Example 60, ethyl 4-[2-(3-aminophenyl)ethynyl]-2,6-dimethyl-7-oxo-1H-pyrrolo[2,3-c]pyridine-3-carboxylate] | 38.1 nM | 120 nM |
| CC(=O)c1c(C)n(C)c2c(=O)[nH]cc(C#CC(C)(C)O)c12 [Example 199b, 3-acetyl-4-(3-hydroxy-3-methyl-but-1-ynyl)-1,2-dimethyl-6H-pyrrolo[2,3-c]pyridin-7-one] | 20000 nM | 20000 nM |
| Cc1[nH]c2c(=O)n(C)cc(C#CC(C)(O)C3CC3)c2c1-c1nnc(C2CCOC2)o1 (single isomer, unassigned) [Example 96b, 4-(3-cyclopropyl-3-hydroxy-but-1-ynyl)-2,6-dimethyl-3-(5-tetrahydrofuran-3-yl-1,3,4-oxadiazol-2-yl)-1H-pyrrolo[2,3-c]pyridin-7-one] | 260 nM | 1140 nM |
| Cc1nnc(-c2c(C)[nH]c3c(=O)n(C)cc(C#CC(C)(O)C4CC4)c23)o1 (stereo not drawn) [Example 192, 4-(3-cyclopropyl-3-hydroxy-but-1-ynyl)-2,6-dimethyl-3-(5-methyl-1,3,4-oxadiazol-2-yl)-1H-pyrrolo[2,3-c]pyridin-7-one] | 61.6 nM | 335 nM |
| Cc1[nH]c2c(=O)n(C)cc(C#CC(O)(c3ccccc3)C(F)(F)F)c2c1C(=O)OCc1ccccc1C#N (stereo not drawn) [Example 107, (2-cyanophenyl)methyl 2,6-dimethyl-7-oxo-4-(4,4,4-trifluoro-3-hydroxy-3-phenyl-but-1-ynyl)-1H-pyrrolo[2,3-c]pyridine-3-carboxylate] | 344 nM | 1630 nM |
| Cc1[nH]c2c(=O)n(C)cc(C#CC(C)(O)C3CC3)c2c1-c1nnc(C(C)(C)C)o1 (single isomer, unassigned) [Example 98a, 3-(5-tert-butyl-1,3,4-oxadiazol-2-yl)-4-(3-cyclopropyl-3-hydroxy-but-1-ynyl)-2,6-dimethyl-1H-pyrrolo[2,3-c]pyridin-7-one] | 227 nM | 728 nM |
| Cc1[nH]c2c(=O)n(C)cc(C#CC(O)(c3ccccc3)C(F)(F)F)c2c1-c1nnco1 (stereo not drawn) [Example 183, 2,6-dimethyl-3-(1,3,4-oxadiazol-2-yl)-4-(4,4,4-trifluoro-3-hydroxy-3-phenyl-but-1-ynyl)-1H-pyrrolo[2,3-c]pyridin-7-one] | 50.2 nM | 598 nM |
| Cc1[nH]c2c(=O)n(C)cc(C#CC(C)(C)O)c2c1C1=NC(C(C)C)CO1 (stereo not drawn) [Example 202, 4-(3-hydroxy-3-methyl-but-1-ynyl)-3-(4-isopropyl-4,5-dihydrooxazol-2-yl)-2,6-dimethyl-1H-pyrrolo[2,3-c]pyridin-7-one] | 176 nM | 1230 nM |
| Cc1[nH]c2c(=O)n(C)cc(C#CC(O)(c3ccccc3)C(F)(F)F)c2c1C(=O)OCCC#N (stereo not drawn) [Example 166, 2-cyanoethyl 2,6-dimethyl-7-oxo-4-(4,4,4-trifluoro-3-hydroxy-3-phenyl-but-1-ynyl)-1H-pyrrolo[2,3-c]pyridine-3-carboxylate] | 31.2 nM | 214 nM |
| Cc1[nH]c2c(=O)n(C)cc(C#CC(C)(O)C3CC3)c2c1-c1nnc(C(C)(C)C)o1 (single isomer, unassigned) [Example 98b, 3-(5-tert-butyl-1,3,4-oxadiazol-2-yl)-4-(3-cyclopropyl-3-hydroxy-but-1-ynyl)-2,6-dimethyl-1H-pyrrolo[2,3-c]pyridin-7-one] | 33.9 nM | 108 nM |
| Cc1[nH]c2c(=O)n(C)cc(C#CC(C)(O)C3CC3)c2c1-c1nnc(C(C)(C)C)o1 (stereo not drawn) [Example 187, 3-(5-tert-butyl-1,3,4-oxadiazol-2-yl)-4-(3-cyclopropyl-3-hydroxy-but-1-ynyl)-2,6-dimethyl-1H-pyrrolo[2,3-c]pyridin-7-one] | 58 nM | 216 nM |
| Cc1[nH]c2c(=O)n(C)cc(C#CC(C)(O)C3CC3)c2c1-c1nnc(C2CCOC2)o1 (stereo not drawn) [Example 175, 4-(3-cyclopropyl-3-hydroxy-but-1-ynyl)-2,6-dimethyl-3-(5-tetrahydrofuran-3-yl-1,3,4-oxadiazol-2-yl)-1H-pyrrolo[2,3-c]pyridin-7-one] | 46.7 nM | 248 nM |
| Cc1[nH]c2c(=O)n(C)cc(C#CC(C)(O)C3CC3)c2c1-c1nnc(C2CCOC2)o1 (single isomer, unassigned) [Example 96a, 4-(3-cyclopropyl-3-hydroxy-but-1-ynyl)-2,6-dimethyl-3-(5-tetrahydrofuran-3-yl-1,3,4-oxadiazol-2-yl)-1H-pyrrolo[2,3-c]pyridin-7-one] | 40.7 nM | 182 nM |
| CCOC(=O)c1c(C)[nH]c2c(=O)n(C)cc(C#CC3(O)CCc4cccnc43)c12 (single isomer, unassigned) [Example 99b, ethyl 4-[2-(7-hydroxy-5,6-dihydrocyclopenta[b]pyridin-7-yl)ethynyl]-2,6-dimethyl-7-oxo-1H-pyrrolo[2,3-c]pyridine-3-carboxylate] | 84.4 nM | 881 nM |
| Cc1nnc(-c2c(C)[nH]c3c(=O)n(C)cc(C#CC(O)(c4ccccc4)C(F)(F)F)c23)o1 (stereo not drawn) [Example 184, 2,6-dimethyl-3-(5-methyl-1,3,4-oxadiazol-2-yl)-4-(4,4,4-trifluoro-3-hydroxy-3-phenyl-but-1-ynyl)-1H-pyrrolo[2,3-c]pyridin-7-one] | 62.7 nM | 327 nM |
